Source: patent US20200369728A1, “PEPTIDOMIMETIC MACROCYCLES AND USES THEREOF” (Aileron Therapeutics, Inc., priority 2015, published 2020)

What was measured:
[1] = test system: Caspase 3; test: Caspase 3 detection assay in SJSA1 cells; assay type: cell-based; conditions: SJSA1, 48 h, Caspase 3 activation over DMSO-treated cells
[2] = test system: SJSA-1 cells; test: Cell lysis by peptidomimetic macrocycles (LDH release); assay type: cell-based; conditions: SJSA-1, 1 h
Experimental: SJSA-1 cells were plated out one day in advance in clear flat-bottom plates (Costar, catalog number 353072) at 7500 cells/well with 100 ul/well of growth media, leaving row H columns 10-12 empty for media alone. On the day of the assay, media was exchanged with RPMI 1% FBS media, 90 uL of media per well.
10 mM stock solutions of the peptidomimetic macrocycles were prepared in 100% DMSO. Peptidomimetic macrocycles were then diluted serially in 100% DMSO, and then further diluted 20-fold in sterile water to prepare working stock solutions in 5% DMSO/water of each peptidomimetic macrocycle at concentrations ranging from 500 μM to 62.5 μM.
10 μL of each compound was added to the 90 uL of SJSA-1 cells to yield final concentrations of 50 μM to 6.25 μM in 0.5% DMSO-containing media. The negative control (non-lytic) sample was 0.5% DMSO alone and positive control (lytic) samples include 10 μM Melittin and 1% Triton X-100.
Cell plates were incubated for 1 hour at 37° C. After the 1 hour incubation, the morphology of the cells is examined by microscope and then the plates were centrifuged at 1200 rpm for 5 minutes at room temperature. 40 μL of supernatant for each peptidomimetic macrocycle and control sample is transferred to clear assay plates. LDH release is measured using the LDH cytotoxicity assay kit from Caymen, catalog #1000882.

SMILES	caspase 0.3 μM [1]	caspase 3 μM [1]	caspase 10 μM [1]	caspase 30 μM [1]	6.25 μM % Lysed cells (1 h LDH) [2]	25 μM % Lysed cells (1 h LDH) [2]	50 μM % Lysed cells (1 h LDH) [2]
CC(=O)N[C@@H](CC(C)C)C(=O)N[C@H](C(=O)N[C@@H](Cc1ccccc1)C(=O)N[C@]1(C)CCCCCCC=CCCC[C@@](C)(C(=O)N[C@@H](CO)C(=O)NC(C)(C)C(=O)N[C@@H](C)C(=O)N[C@@H](C)C(N)=O)NC(=O)[C@H](CC(C)C)NC(=O)[C@H](CCC(N)=O)NC(=O)[C@H](C)NC(=O)[C@H](Cc2c[nH]c3ccccc23)NC(=O)[C@H](Cc2ccc(O)cc2)NC(=O)[C@H](C)NC1=O)[C@@H](C)O (single isomer, unassigned) [compound 26]	1	1	3	14	2%	−1%	0%
CC[C@H](C)[C@H](NC(=O)[C@H](C)NC(=O)[C@H](C)NC(=O)[C@]1(C)CCCC=CCCCCCC[C@@](C)(NC(=O)[C@H](Cc2ccccc2)NC(=O)[C@@H](NC(=O)[C@H](CC(C)C)NC(C)=O)[C@@H](C)O)C(=O)N[C@@H](C)C(=O)N[C@@H](Cc2ccc(O)cc2)C(=O)N[C@@H](Cc2c[nH]c3ccccc23)C(=O)N[C@@H](C)C(=O)N[C@@H](C)C(=O)N[C@@H](CC(C)C)C(=O)N1)C(=O)N[C@@H](C(N)=O)C(C)C (single isomer, unassigned) [compound 77]	1	2	19	23	−2%	1%	−1%
CCCC[C@H](NC(=O)[C@H](C)NC(=O)[C@H](C)NC(=O)[C@]1(C)CCCC=CCCCCCC[C@@](C)(NC(=O)[C@H](Cc2ccccc2)NC(=O)[C@@H](NC(=O)[C@H](CC(C)C)NC(C)=O)[C@@H](C)O)C(=O)N[C@@H](C)C(=O)N[C@@H](Cc2ccc(O)cc2)C(=O)N[C@@H](Cc2c[nH]c3ccccc23)C(=O)N[C@@H](C)C(=O)N[C@@H](C)C(=O)N[C@@H](CC(C)C)C(=O)N1)C(=O)N[C@@H](C(N)=O)C(C)C (single isomer, unassigned) [compound 80]	1	2	13	20	0%	1%	5%
CC(=O)N[C@@H](CC(C)C)C(=O)N[C@H](C(=O)N[C@@H](Cc1ccccc1)C(=O)N[C@]1(C)CCCCCCC=CCCC[C@@](C)(C(=O)N[C@@H](CO)C(=O)N[C@H](C(=O)N[C@@H](C)C(N)=O)C(C)C)NC(=O)[C@H](CC(C)C)NC(=O)[C@H](CCC(N)=O)NC(=O)[C@H](C)NC(=O)[C@H](Cc2c[nH]c3ccccc23)NC(=O)[C@H](Cc2ccc(O)cc2)NC(=O)[C@H](C(C)C)NC1=O)[C@@H](C)O (single isomer, unassigned) [compound 139]	1	2	9	18	−2%	−1%	−1%
CC(=O)N[C@@H](CC(C)C)C(=O)N[C@H](C(=O)N[C@@H](Cc1ccccc1)C(=O)N[C@]1(C)CCCCCCC=CCCC[C@@](C)(C(=O)N[C@@H](CO)C(=O)N[C@H](C(=O)N[C@@H](CO)C(N)=O)C(C)C)NC(=O)[C@H](CC(C)C)NC(=O)[C@H](CCC(N)=O)NC(=O)[C@H](C)NC(=O)[C@H](Cc2c[nH]c3ccccc23)NC(=O)[C@H](Cc2ccc(O)cc2)NC(=O)[C@H](C(C)C)NC1=O)[C@@H](C)O (single isomer, unassigned) [compound 142]	1	2	15	20	1%	1%	3%
CC(=O)N[C@@H](CC(C)C)C(=O)N[C@H](C(=O)N[C@@H](Cc1ccccc1)C(=O)N[C@]1(C)CCCCCCC=CCCC[C@@](C)(C(=O)N[C@@H](CO)C(=O)N[C@@H](C)C(=O)N[C@@H](CO)C(N)=O)NC(=O)[C@H](CC(C)C)NC(=O)[C@H](CCC(N)=O)NC(=O)[C@H](C)NC(=O)[C@H](Cc2c[nH]c3ccccc23)NC(=O)[C@H](Cc2ccc(O)cc2)NC(=O)[C@H](C(C)C)NC1=O)[C@@H](C)O (single isomer, unassigned) [compound 144]	1	4	10	16	1%	−1%	2%
CC(=O)N[C@@H](CC(C)C)C(=O)N[C@H](C(=O)N[C@@H](Cc1ccccc1)C(=O)N[C@]1(C)CCCCCCC=CCCC[C@@](C)(C(=O)N[C@@H](CO)C(=O)N[C@@H](C)C(=O)N[C@@H](C)C(N)=O)NC(=O)[C@H](C2CCCC2)NC(=O)[C@H](CCC(N)=O)NC(=O)[C@H](C)NC(=O)[C@H](Cc2c[nH]c3ccccc23)NC(=O)[C@H](Cc2ccc(O)cc2)NC(=O)[C@H](CCC(=O)O)NC1=O)[C@@H](C)O (single isomer, unassigned) [compound 149]	1	2	4	10	6%	7%	21%
CC(=O)N[C@@H](CC(C)C)C(=O)N[C@H](C(=O)N[C@@H](Cc1ccccc1)C(=O)N[C@]1(C)CCCCCCC=CCCC[C@@](C)(C(=O)N[C@@H](CO)C(=O)N[C@@H](C)C(=O)N[C@@H](C)C(N)=O)NC(=O)[C@H](CC2CCC2)NC(=O)[C@H](CCC(N)=O)NC(=O)[C@H](C)NC(=O)[C@H](Cc2c[nH]c3ccccc23)NC(=O)[C@H](Cc2ccc(O)cc2)NC(=O)[C@H](CCC(=O)O)NC1=O)[C@@H](C)O (single isomer, unassigned) [compound 153]	2	10	15	20	4%	2%	3%
CC[C@H](C)[C@H](NC(=O)[C@H](C)NC(=O)[C@H](C)NC(=O)[C@]1(C)CCCC=CCCCCCC[C@@](C)(NC(=O)[C@H](Cc2ccccc2)NC(=O)[C@@H](NC(=O)[C@H](CC(C)C)NC(C)=O)[C@@H](C)O)C(=O)N[C@@H](C)C(=O)N[C@@H](Cc2ccc(O)cc2)C(=O)N[C@@H](Cc2c[nH]c3ccccc23)C(=O)N[C@@H](C)C(=O)N[C@@H](C)C(=O)N[C@@H](CC(C)C)C(=O)N1)C(=O)N[C@H](C)C(N)=O (single isomer, unassigned) [compound 203]	1	3	12	10	0%	2%	2%
CC(=O)N[C@@H](CC(C)C)C(=O)N[C@H](C(=O)N[C@@H](Cc1ccccc1)C(=O)N[C@]1(C)CCCCCCC=CCCC[C@@](C)(C(=O)N[C@@H](C)C(=O)N[C@@H](C)C(=O)N[C@@H](Cc2ccccc2)C(=O)N[C@H](C)C(N)=O)NC(=O)[C@H](CC(C)C)NC(=O)[C@H](CCC(N)=O)NC(=O)[C@H](C)NC(=O)[C@H](Cc2c[nH]c3ccccc23)NC(=O)[C@H](Cc2ccc(O)cc2)NC(=O)[C@H](CCC(=O)O)NC1=O)[C@@H](C)O (single isomer, unassigned) [compound 218]	1	2	8	18	0%	−4%	1%
CC(=O)N[C@@H](CC(C)C)C(=O)N[C@H](C(=O)N[C@@H](Cc1ccccc1)C(=O)N[C@]1(C)CCCCCCC=CCCC[C@@](C)(C(=O)N[C@@H](C)C(=O)N[C@@H](C)C(=O)N[C@H](C(=O)N[C@H](C)C(N)=O)C(C)C)NC(=O)[C@H](CC(C)C)NC(=O)[C@H](CCC(N)=O)NC(=O)[C@H](C)NC(=O)[C@H](Cc2c[nH]c3ccccc23)NC(=O)[C@H](Cc2ccc(O)cc2)NC(=O)[C@H](CCC(=O)O)NC1=O)[C@@H](C)O (single isomer, unassigned) [compound 221]	1	3	6	12	3%	3%	11%
CC[C@H](C)[C@H](NC(=O)[C@H](C)NC(=O)[C@H](C)NC(=O)[C@]1(C)CCCC=CCCCCCC[C@@](C)(NC(=O)[C@H](Cc2ccccc2)NC(=O)[C@@H](NC(=O)[C@H](CC(C)C)NC(C)=O)[C@@H](C)O)C(=O)N[C@@H](CCC(=O)O)C(=O)N[C@@H](Cc2c[nH]cn2)C(=O)N[C@@H](Cc2c[nH]c3ccccc23)C(=O)N[C@@H](C)C(=O)N[C@@H](CCC(N)=O)C(=O)N[C@@H](CC(C)C)C(=O)N1)C(=O)N[C@H](C)C(N)=O (single isomer, unassigned) [compound 223]	1	1	5	18	−2%	−4%	−1%
